Measured values taken from patent US10611720B2, “Composition for preventing or treating hair loss including benzene diamine derivative” (UNIST(ULSAN NATIONAL INSTITUTE OF SCIENCE AND TECHNOLOGY), priority 2017, dated 2020).

Key:
[1] = test system: APP/PS/Tau mouse (hair loss-induced mouse model); experiment: Hair growth change in hair loss mouse model, oral administration; type: in vivo; conditions: APP/PS/Tau mice, oral 100 μg/Kg twice a week for 2 months
Description: An experimental group was prepared by orally administering the control group with the benzene diamine derivate at a concentration of 100 μg/Kg/0.1 ml using a zonde twice a week, and then changes in appearance were observed.
In detail, APP/PS/Tau was purchased from Jackson lab (BAR HARBOR, USA), and APP/Tau female and APP/PSen1de9 purchased from Taconic (Hudson, USA) were cross-mated for 6 generations, and 4-month-old mouse models were obtained from F1. The mouse models were characterized by appearance of hair loss. The hair loss mouse models were divided into groups of 6 mice, and among the hair loss mouse models, the normal group and the control group were orally administered with a phosphate buffer carrier (PBS) for 2 months, and the experimental group was orally administered with 100 μl of N^1-(pyridin-2-ylmethyl)benzene-1,4-diamine (Compound 1) at a concentration of 100 μg/Kg twice a week for 2 months. Thereafter, changes in their appearance were compared.

[2] = test system: human hair follicle dermal papilla cells (hDPCs); experiment: Cell viability (MTT) of hDPCs under oligomer Aβ-induced cytotoxicity; conditions: hDPCs treated with 2 nM oligomer Aβ and 25 μg/ml compound, 72 hours, as compared with group (N)
Description: In order to examine effects of the benzene diamine derivates of the present disclosure on improvement of cell viability of hair follicular cells, human hair follicle dermal papilla cells (hDPCs) were treated with the benzene diamine derivates, and cell viability was examined. […] Therefore, examination was performed by using oligomer Aβ as a toxic material for hDPC.
In detail, 2×10^3 hDPCs were dispensed in a multi 96-well plate containing a DMEM medium supplemented with 10% FBS, and cultured in a CO2 incubator (Thermo Scientific) at 37° C., 5% CO2 for 24 hours. Thereafter, experiments were performed by using a normal group which was treated with only cells, a control group which was a group treated with 10 μl of 2 nM oligomer Aβ (oAβ) previously synthesized, and an experimental group which is prepared by treating the normal group with the same concentration of oligomer Aβ and 25 μg/ml of each benzene diamine derivate sample in water or DMSO. To examine cell viability at 72 hours after treatment of the cell line with the sample, 20 μl of 2% MTT solution was added to the cell culture medium. 3 hours later, to terminate the reaction, the culture medium was removed by aspiration, and 50 μl of DMSO was added. 30 minutes later, the reaction was terminated. Thereafter, OD value was measured at 570 nm by using a microplate reader (BioTek, Synergy HT, USA).

SOX-9 [3] = experiment: SOX-9 expression in skin of hair loss mouse model, oral administration; type: in vivo; conditions: APP/PS/Tau mice, oral 100 μg/Kg twice a week, 2 months
Description: (§1) Accordingly, the present inventors examined whether expressions of hair growth stimulating factors, SOX-2 and SOX-9 were increased in hair loss animal models by the benzene diamine derivates of the present disclosure. In order to examine SOX-2 and SOX-9 expressions inside skin tissues, APP/PS/Tau mouse which is a hair loss-induced mouse model was selected as a control group and C57BL6 mouse was selected as a normal group, as in Example 5. An experimental group was prepared by orally administering the control group with the benzene diamine derivate at a concentration of 100 μg/Kg/0.1 ml using a zonde twice a week. 2 months later, incision of the skin was performed under local anesthesia, and the skin tissues were fixed in 4% paraformaldehyde solution for 24 hours, and fixed in a plastic mold with O.C.T. Compound (SAKURA, USA) for cryostat sectioning. […] Thereafter, the plate was put on a slide glass and covered with a cover slide, and stored in a dark acrylic box, and fluorescence imaging was observed under a confocal microscope (LSM710, Carl Zeiss, Germany) by 405/488/565 nm laser. […]

COL17A1 = COL17A1 expression in hDPC cells under oligomer Aβ (confocal fluorescence); type: cell-based, human; conditions: hDPCs, 2 nM oligomer Aβ + 25 μg/ml compound, 3 days; normal group 143±11, oligomer Aβ control 16±6
Description: (§2) As in Example 2, examination was performed by using oligomer Aβ as a cytotoxic material for hDPC.
(§3) At 3 days after treatment of the derivatives, the cells were fixed with 4% paraformaldehyde solution, and washed with PBS, and then fluorescence of ROI (relative fluorescence intensity) was measured at 488 nm by a confocal microscope (CONFOCAL, LSM710, Carl Zeiss, Germany) to examine SOX-9 and Cola17a1 expressions. As in Example 2, examination was performed by using oligomer Aβ as a cytotoxic material for hDPC.
as §3, with “fluorescence” for “fluorescence of ROI (relative fluorescence intensity)”, “488 nm/565” for “488”, “hDPC. […] COL17A1 expression was inhibited in the cells (control group C) treated with the cytotoxic oligomer Aβ, as compared with the normal group.” for “hDPC.”

SOX-9 [4] = experiment: SOX-9 expression in hDPC cells under oligomer Aβ (confocal fluorescence); type: cell-based, human; conditions: hDPCs, 2 nM oligomer Aβ + 25 μg/ml compound, 3 days; for SOX-9 expression (average fluorescence intensity): normal group 220±12, oligomer Aβ control 12±4; for SOX-9 expression (confocal imaging, in words): Example 4, compared with cells treated with oligomer Aβ
Description: as §2, §3
as §3, with “fluorescence” for “fluorescence of ROI (relative fluorescence intensity)”, “488 nm/565” for “488”, “hDPC. […] COL17A1 expression was inhibited in the cells (control group C) treated with the cytotoxic oligomer Aβ, as compared with the normal group.” for “hDPC.”

monomer/oligomer Aβ = experiment: Monomer/oligomer Aβ expression in skin of hair loss mouse model, oral administration; type: in vivo; conditions: APP/PS/Tau mice, oral 100 μg/Kg twice a week, 2 months
SOX-2 = SOX-2 expression in skin of hair loss mouse model, oral administration; type: in vivo; conditions: APP/PS/Tau mice, oral 100 μg/Kg twice a week, 2 months
Description: as §1

Row | Structure (SMILES) | hair loss (changes in appearance) [1] | cell viability [2] [%] | SOX-9 expression in skin (SOX-9 [3]) | COL17A1 expression (average fluorescence intensity) (COL17A1) [AFI] | SOX-9 expression (average fluorescence intensity) (SOX-9 [4]) [AFI] | monomer/oligomer Aβ expression in skin (monomer/oligomer Aβ) | SOX-2 expression in skin (SOX-2) | SOX-9 expression (confocal imaging, in words) (SOX-9 [4])
1 | Nc1ccc(NCc2ccccn2)cc1 [Compound 1, N^1-(pyridin-2-ylmethyl)benzene-1,4-diamine] | remarkable improvement in hair loss | 82±2 | remarkably increased | 152±13 | 134±23 | decreased | remarkably expressed close to the normal group | –
2 | c1ccc(CNc2ccc(N3CCOCC3)cc2)nc1 [Compound 2, 4-morpholino-N-(pyridin-2-ylmethyl)aniline] | – | 87±5 | – | 234±31 | 187±23 | – | – | –
3 | CN(C)c1ccc(N)cc1 [Compound 3, N^1,N^1-dimethyl-1,4-phenylenediamine] | – | – | – | 24±6 | 157±21 | – | – | –
4 | CC(=O)Nc1ccc(N(C)C)cc1 [Compound 4, N-(4-dimethylamino)phenyleneacetamide] | – | 74±3 | – | 2±1 | 446±110 | – | – | more strongly promoted the expression
5 | CC(=O)Nc1ccc(N)cc1 [Compound 5, N-(4-aminophenyl)acetamide] | – | 77±1 | – | 3±1 | 325±45 | – | – | more strongly promoted the expression
6 | CC(=O)Nc1ccc(NC(C)=O)cc1 [Compound 6, N,N-(1,4-phenylene)diacetate Amide] | – | 86±1 | – | 226±34 | 267±56 | – | – | –
